Series [1] has as its target T1, human mineralocorticoid receptor (hMR) (Homo sapiens, UniProt P08235).
T1 construct: expressed in transfected cells; host or cells: HEK293
T1 sequence (P08235 726-964 limits assumed): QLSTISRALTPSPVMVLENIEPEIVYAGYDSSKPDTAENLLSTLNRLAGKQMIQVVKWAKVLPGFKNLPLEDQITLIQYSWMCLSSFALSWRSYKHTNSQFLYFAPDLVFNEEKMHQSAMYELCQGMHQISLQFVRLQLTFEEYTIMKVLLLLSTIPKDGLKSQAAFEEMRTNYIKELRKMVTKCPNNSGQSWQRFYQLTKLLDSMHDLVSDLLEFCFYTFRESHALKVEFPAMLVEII
Briefly: GAL4-hMR-LBD luciferase reporter assay in HEK293 cells with 1 nM aldosterone (Test Example 1).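 For Imax: 0% is DMSO-only control and 100% is 1 nM aldosterone alone.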 Format: cell-based. The note with it: for Emax: HEK293, read-out: Imax; for IC50: concentration showing Imax/2, HEK293, GAL4-hMR-LBD, 1 nM aldosterone, overnight, read-out: ICmax50. On the technique in general: In a reporter assay the amount or activity of a reporter protein is the signal.

Series [2] in a line: Plasma concentration after intragastric administration to cynomolgus monkey (Test Example 2). Format: in vivo. The note with it: male cynomolgus monkey, 3 mg/kg intragastric in 0.5% MC, plasma, LC-MS/MS; for AUC, area under the plasma concentration versus time curve: noncompartment model; for Cmax: po, read-out: Cmax, maximum concentration. As to the method: Cynomolgus monkey (male) was used, and it was fasted from the day before administration of the test compound.
Administration samples were prepared by adding a 0.5% MC (methyl cellulose) solution to the Test Compound, so that the dose becomes 3 mg/2 mL/kg. Each of the administration samples was administered intragastrically to the cynomolgus monkey by using a tube. After the samples were administered, approximately 5 mL of 0.5% MC was administered. For each of the administration samples, a group of two cynomolgus monkeys was administered.
With respect to collection of blood, it was conducted by collecting approximately 0.5 mL of blood from crotch vein using a glass syringe treated with heparin, before administration, and 30 minutes, 1, 2, 4, 6, 8, 24 and 48 hours after administration. Blood was centrifuged (1,700×g, 15 min, 4° C.) to obtain plasma. Plasma was stored in a freezer (−20° C.) until pretreatment.
Preparation of standard solution and internal standard (IS) solution: Each of the Test Compounds was dissolved in DMSO (dimethyl sulfoxide) to prepare a solution of 10 mM each. Each of the compound solution was diluted with acetonitrile, and thus standard solution was prepared. Further, niflumic acid (Wako Pure Chemical Industries, Ltd.) was dissolved in DMSO at the concentration of 2 mM, followed by dilution with acetonitrile to prepare an IS solution of 2 μM.
Pretreatment of plasma samples: 20 μL of plasma sample was collected, and then 25 μL of purified water, 100 μL of acetonitrile, and 100 μL of methanol was added. For the preparation of a calibration curve, 25 μL of purified water, 20 μL of each of the standard solutions (acetonitrile solution), 80 μL of acetonitrile, and 100 μL of methanol were added to 20 μL of blank plasma. 40 μL of the acetonitrile solution of IS was added to all of the samples, and then the samples were stirred, filtered by suction using Captiva filter plate (Varian, Inc.), and then the filtrate was used as the sample for LC-MS/MS analysis.
Quantitative Determination of Test Compound: Concentration in plasma was analyzed by LC-MS/MS method for each Test Compound.
Analysis: Pharmacokinetic parameter was calculated from concentration of each of the drugs in plasma, by using WinNonlin Professional (Ver. 4.0.1, Pharsight Corporation). Here, Noncompartment model was used as the model for parameter calculation.

With `Cc1c(C(=O)Nc2ccc(S(C)(=O)=O)cc2)cc(CCF)n1-c1ccc(F)cc1OC(F)F` (single isomer, unassigned) [Example 54 - isomer A, 1-[2-(Difluoromethoxy)-4-fluorophenyl]-5-(2-fluoroethyl)-2-methyl-N-[4-(methylsulfonyl)phenyl]-1H-pyrrole-3-carboxamide], in series [1], the Emax turned out to be 99% and the IC50 turned out to be 6.5 nM. In series [2], the “AUC, area under the plasma concentration versus time curve” value came to 11410 ng·h/mL and the Cmax is 970 ng/mL.
Turning to `Cc1c(C(=O)Nc2ccc(S(C)(=O)=O)cc2)cc(C[C@H](C)O)n1-c1ccc(F)cc1OC(F)(F)F` (single isomer, unassigned) [Example 16 - isomer A], in series [1], the Emax is 101% and the IC50 is 3.6 nM. Also, in series [2], the “AUC, area under the plasma concentration versus time curve” value is 13490 ng·h/mL and the Cmax is 1000 ng/mL.
Regarding `Cc1c(C(=O)Nc2ccc(S(C)(=O)=O)cc2)cc(C[C@H](C)O)n1-c1ccc(Cl)cc1Cl` (single isomer, unassigned) [Example 43 - isomer A], in series [1], the Emax came to 123% and the IC50 is 5.5 nM. In series [2], the “AUC, area under the plasma concentration versus time curve” value was determined as 14820 ng·h/mL and the Cmax amounted to 1140 ng/mL.
Take `Cc1cc(C(=O)Nc2ccc(S(C)(=O)=O)cc2)c(C)n1-c1ccc(F)cc1C(F)(F)F` [Reference compound B, 1-[4-fluoro-2-(trifluoromethyl)phenyl]-2,5-dimethyl-N-[4-(methylsulfonyl)phenyl]-1H-pyrrole-3-carboxamide, reference compound]: in series [1], the Emax stood at 93% and the IC50 amounted to 12 nM. Also, in series [2], the “AUC, area under the plasma concentration versus time curve” value was 170 ng·h/mL and the Cmax turned out to be 10 ng/mL.

Values taken from patent publication US8642640B2, “1-phenylpyrrole derivatives” (Exelixis, Inc., priority 2008, dated 2014).
